# Assay results published in patent US8802405B2, “Ethanologenic Clostridium species, Clostridium coskatii” (Coskata, Inc., priority 2010, dated 2014).
# What was measured:
# [1] = at 37° C.; cited from earlier work
# C. autoethangenum [2] = test: Antibiotic susceptibility, growth at 100 μg/mL antibiotic; format: cell-based, Clostridium autoethanogenum; details: antibiotic 100 μg/ml, 37% CO, 35% H2, 22% CO2, balance N2, OD600
# Procedure: (§1) The antibiotic susceptibility of Clostridium coskatii (PS02) was evaluated in Acetogen C3 media against 17 antibiotics at a concentration of 100 μg/mL (Table G). Clostridium coskatii (PS02) was resistant to erythromycin, nalidixic acid, spectinomycin, colistin, penicillin, streptomycin, and chloramphenicol. Three antibiotics differentiated C. coskatii from three ethanologenic Clostridia: C. ljungdahlii PETC, C. ragsgalei, and C. autoethanogenum. These differentiating antibiotics included, erythromycin, carbenicillin, and chloramphenicol (Table J).
# (§2) Antibiotic susceptibility was based upon growth in media containing 100 μg/mL of each antibiotic. The atmosphere was 37% CO, 35% H2, 22% CO2 with a balance gas of N2. A positive growth response was recorded for an OD600 exceeding 0.2 AU.
# C. ragsdalei [3] = test: as above; format: cell-based, Clostridium ragsdalei; details: antibiotic 100 μg/ml, 37% CO, 35% H2, 22% CO2, balance N2, OD600
# Procedure: as §1, §2
# C. ljungdahlii PETC [4] = test: as above; format: cell-based, Clostridium ljungdahlii PETC; details: for Antibiotic susceptibility pattern (+ indicates growth): C. ljungdahlii PETC, antibiotic 100 μg/ml, 37% CO, 35% H2, 22% CO2, balance N2, OD600; for Resistance to antibiotic (in words): Clostridium ljungdahlii PETC, 100 μg/mL
# Procedure: as §1, §2
# C. coskatii PS02 [5] = test: as above; format: cell-based, Clostridium coskatii (PS02); details: Acetogen C3 media; for Antibiotic susceptibility pattern (+ indicates growth): C. coskatii PS02, antibiotic 100 μg/ml, 37% CO, 35% H2, 22% CO2, balance N2, OD600; for Resistance to antibiotic (in words): Clostridium coskatii (PS02), 100 μg/mL
# Procedure: as §1, §2
# C. autoethangenum [6] = test: Growth on various substrates (carbon substrate utilization); format: cell-based, Clostridium autoethanogenum; details: C. autoethangenum; 1 g/L carbon source; N2:CO2 (80%:20%); OD600
# Procedure: (§3) Growth was measured spectrophotometrically at 600 nm (Spectronic 20D; Milton Roy). Carbon substrate utilization was based upon growth after consecutive transfers in media containing 1 g/L of each carbon source. For carbon substrates, screening was performed under an atmosphere of N2: CO2 (80%:20%). A positive growth response was recorded for an OD600 exceeding 0.2 AU. For citrate, additional ^13C-labeled isotope experiments were conducted to determine the nature of products by analysis of final 0.2 μm-filtered product samples by carbon NMR using a Bruker UltraShield Avance 400 MHz nuclear magnetic resonance spectrometer.
# C. ragsdalei [7] = test: as above; format: cell-based, Clostridium ragsdalei; details: for Growth on substrate: 1 g/L carbon source, N2:CO2 (80%:20%), OD600
# Procedure: as §3
# C. ljungdahlii PETC [8] = test: as above; format: cell-based, Clostridium ljungdahlii PETC; details: 1 g/L carbon source, N2:CO2 (80%:20%), OD600
# Procedure: as §3
# C. coskatii PS02 [9] = test: as above; format: cell-based, Clostridium coskatii (PS02); details: for Growth on substrate: C. coskatii PS02, 1 g/L carbon source, N2:CO2 (80%:20%), OD600; for Chemoorganotrophic growth on substrate (in words): Clostridium coskatii (PS02)
# Procedure: as §3
# [10] = system: Clostridium coskatii (PS02)
# Text: In general, fermentation will be allowed to proceed until a desired level of product such as ethanol is produced in the culture media. Typically, this level of ethanol is in the range of at least 15 grams/liter of culture medium to 50 grams/liter, with a level of at least 30 grams/liter being preferable. […] In addition, continuous culture techniques exist which allow the continual replenishment of fresh culture medium with concurrent removal of used medium, including any liquid products therein (i.e. the chemostat mode).
# [11] = system: Clostridium coskatii (PS02); remark: listed apart in the source
# C. coskatii PS02 [12] = test: Growth on various substrates (carbon substrate utilization); format: cell-based; details: Clostridium coskatii (PS02); absence of yeast extract
Compound,Antibiotic susceptibility pattern (+ indicates growth) (C. ljungdahlii PETC [4]),Antibiotic susceptibility pattern (+ indicates growth) (C. coskatii PS02 [5]),Resistance to antibiotic (in words) (C. coskatii PS02 [5]),Growth on substrate (C. autoethangenum [6]),Growth on substrate (C. ljungdahlii PETC [8]),Growth on substrate (C. coskatii PS02 [9]),other results
"O=S(=O)(O)CCN1CCN(CCS(=O)(=O)O)CC1 [PIPES, piperazine-N,N′-bis(2-ethanesulfonic acid]",–,–,–,–,–,–,pKa [1]: 6.66
CCn1cc(C(=O)O)c(=O)c2ccc(C)nc21 [Nalidixic acid],+ (+ indicates growth),+ (+ indicates growth),resistant,–,–,–,Antibiotic susceptibility pattern (+ indicates growth) (C. autoethangenum [2]): + (+ indicates growth); Antibiotic susceptibility pattern (+ indicates growth) (C. ragsdalei [3]): + (+ indicates growth)
[H]/N=C(/N)N[C@H]1[C@H](O)[C@@H](O)[C@H](O[C@@H]2O[C@@H](C)[C@](O)(C=O)[C@H]2O[C@@H]2O[C@@H](CO)[C@H](O)[C@@H](O)[C@@H]2NC)[C@@H](N/C(N)=N\[H])[C@@H]1O [Streptomycin],+ (+ indicates growth),+ (+ indicates growth),resistant,–,–,–,Antibiotic susceptibility pattern (+ indicates growth) (C. autoethangenum [2]): + (+ indicates growth); Antibiotic susceptibility pattern (+ indicates growth) (C. ragsdalei [3]): + (+ indicates growth)
CC1(C)S[C@@H]2[C@H](NC(=O)C(C(=O)O)c3ccccc3)C(=O)N2[C@H]1C(=O)O (stereo partly drawn) [Carbenicillin],+ (+ indicates growth),+ (+ indicates growth),Resistance,–,–,–,Resistance to antibiotic (in words) (C. ljungdahlii PETC [4]): Resistance
CCO [Ethanol],–,–,–,+ (A positive growth response was recorded for an OD600 exceeding 0.2 AU),+ (A positive growth response was recorded for an OD600 exceeding 0.2 AU),+ (A positive growth response was recorded for an OD600 exceeding 0.2 AU),Growth on substrate (C. ragsdalei [7]): + (A positive growth response was recorded for an OD600 exceeding 0.2 AU); Ethanol concentration in which the organism remains viable and will grow [10]: at least 60 grams/liter
Tris(hydroxymethyl)aminomethane,–,–,–,–,–,–,pKa [1]: 7.72
CC[C@H]1OC(=O)[C@H](C)[C@@H](O[C@H]2C[C@@](C)(OC)[C@@H](O)[C@H](C)O2)[C@H](C)[C@@H](O[C@@H]2O[C@H](C)C[C@H](N(C)C)[C@H]2O)[C@](C)(O)C[C@@H](C)C(=O)[C@H](C)[C@@H](O)[C@]1(C)O [Erythromycin],+ (+ indicates growth),+ (+ indicates growth),resistant,–,–,–,Resistance to antibiotic (in words) (C. ljungdahlii PETC [4]): Resistance
CC(=O)O [acetic acid],–,–,–,–,–,–,Concentration of undissociated acetic acid at which cell growth was significantly inhibited [11]: exceeded 50 mM
"O=S(=O)(O)CCN1CCOCC1 [MES, 2-(N-morpholino)ethanesulfonic acid]",–,–,–,–,–,–,pKa [1]: 5.97
[C-]#[O+] [CO],–,–,–,+ (A positive growth response was recorded for an OD600 exceeding 0.2 AU),+ (A positive growth response was recorded for an OD600 exceeding 0.2 AU),+ (A positive growth response was recorded for an OD600 exceeding 0.2 AU),Growth on substrate (C. ragsdalei [7]): + (A positive growth response was recorded for an OD600 exceeding 0.2 AU); Chemolithoautotrophic growth (in words) (C. coskatii PS02 [12]): occurred
CN[C@@H]1[C@H](O)[C@H](NC)[C@H]2O[C@@]3(O)C(=O)C[C@@H](C)O[C@H]3O[C@@H]2[C@H]1O [Spectinomycin],+ (+ indicates growth),+ (+ indicates growth),resistant,–,–,–,Antibiotic susceptibility pattern (+ indicates growth) (C. autoethangenum [2]): + (+ indicates growth); Antibiotic susceptibility pattern (+ indicates growth) (C. ragsdalei [3]): + (+ indicates growth)
O=C(N[C@H](CO)[C@H](O)c1ccc([N+](=O)[O-])cc1)C(Cl)Cl [Chloramphenicol],–,+ (+ indicates growth),resistant,–,–,–,–
Penicillin,+ (+ indicates growth),+ (+ indicates growth),resistant,–,–,–,Antibiotic susceptibility pattern (+ indicates growth) (C. autoethangenum [2]): + (+ indicates growth); Antibiotic susceptibility pattern (+ indicates growth) (C. ragsdalei [3]): + (+ indicates growth)
CC(=O)C(=O)O [Na-Pyruvate],–,–,–,+ (A positive growth response was recorded for an OD600 exceeding 0.2 AU),+ (A positive growth response was recorded for an OD600 exceeding 0.2 AU),+ (A positive growth response was recorded for an OD600 exceeding 0.2 AU),Growth on substrate (C. ragsdalei [7]): + (A positive growth response was recorded for an OD600 exceeding 0.2 AU); Chemoorganotrophic growth on substrate (in words) (C. coskatii PS02 [9]): growth was observed
O=C(O)CC(O)C(=O)O (stereo not drawn) [Malic acid],–,–,–,+ (A positive growth response was recorded for an OD600 exceeding 0.2 AU),+ (A positive growth response was recorded for an OD600 exceeding 0.2 AU),+ (A positive growth response was recorded for an OD600 exceeding 0.2 AU),Growth on substrate (C. ragsdalei [7]): + (A positive growth response was recorded for an OD600 exceeding 0.2 AU); Chemoorganotrophic growth on substrate (in words) (C. coskatii PS02 [9]): growth was observed
O=C(O)CC(=O)O [Malonic acid],–,–,–,+ (A positive growth response was recorded for an OD600 exceeding 0.2 AU),+ (A positive growth response was recorded for an OD600 exceeding 0.2 AU),+ (A positive growth response was recorded for an OD600 exceeding 0.2 AU),Growth on substrate (C. ragsdalei [7]): + (A positive growth response was recorded for an OD600 exceeding 0.2 AU); Chemoorganotrophic growth on substrate (in words) (C. coskatii PS02 [9]): growth was observed
Colistin,+ (+ indicates growth),+ (+ indicates growth),resistant,–,–,–,Antibiotic susceptibility pattern (+ indicates growth) (C. autoethangenum [2]): + (+ indicates growth); Antibiotic susceptibility pattern (+ indicates growth) (C. ragsdalei [3]): + (+ indicates growth)
N[C@@H](Cc1c[nH]cn1)C(=O)O [Histidine],–,–,–,+ (A positive growth response was recorded for an OD600 exceeding 0.2 AU),+ (A positive growth response was recorded for an OD600 exceeding 0.2 AU),+ (A positive growth response was recorded for an OD600 exceeding 0.2 AU),Growth on substrate (in words) (C. ragsdalei [7]): inability; Chemoorganotrophic growth on substrate (in words) (C. coskatii PS02 [9]): growth was observed
